Laboratory results published in publication PMC5036131, “Fragment-based discovery of a new family of non-peptidic small-molecule cyclophilin inhibitors with potent antiviral activities” (Nature Communications, 2016).
Where two headings read alike, the source gives them in different places.

Tests used:
CYP1A2 = target: T1, CYP1A2 (Homo sapiens, UniProt P05177); assay: Cytochrome P450 enzyme inhibition assay, CYP1A2; type: in vitro ADME; parameters: incubated with human hepatic microsomal fractions and NADPH; from tissue; host or cells: human hepatic microsomal fractions; conditions: human hepatic microsomal fractions, up to 25 μM
T1 sequence (P05177 1-516): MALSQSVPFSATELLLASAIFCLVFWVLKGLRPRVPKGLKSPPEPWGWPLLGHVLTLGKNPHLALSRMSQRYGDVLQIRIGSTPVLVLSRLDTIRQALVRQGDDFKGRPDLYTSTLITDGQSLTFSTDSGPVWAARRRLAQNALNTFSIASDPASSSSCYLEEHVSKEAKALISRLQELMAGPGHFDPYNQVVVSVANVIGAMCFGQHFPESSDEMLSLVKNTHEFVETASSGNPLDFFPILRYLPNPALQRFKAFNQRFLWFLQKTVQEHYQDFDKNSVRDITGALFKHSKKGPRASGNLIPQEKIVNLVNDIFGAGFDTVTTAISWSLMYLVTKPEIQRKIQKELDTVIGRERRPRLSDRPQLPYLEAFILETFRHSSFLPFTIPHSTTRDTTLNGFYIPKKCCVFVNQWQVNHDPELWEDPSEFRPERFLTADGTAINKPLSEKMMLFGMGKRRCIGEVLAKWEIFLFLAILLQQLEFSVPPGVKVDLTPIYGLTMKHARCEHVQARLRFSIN
Experimental: (§1) Up to 25 μM of compounds 29 and 30 was incubated with human hepatic microsomal fractions and NADPH in the presence of individual probe substrates. All assays were designed so that conditions were linear with respect to time and protein concentration. Substrates were present at concentrations equal to or lower than their respective Km values. Enzyme selective products were determined by fluorometry (ethoxyresorufin O-deethylase) or by specific LC-MS/MS assays. Relative enzyme activities were determined by comparison with those assayed with DMSO vehicle instead of inhibitor. IC50 values were calculated by nonlinear curve fitting using a sigmoidal model. Positive control inhibitors for each enzyme were tested in parallel.

CYP3A4 = target: T2, CYP3A4 (Homo sapiens, UniProt P08684); assay: Cytochrome P450 enzyme inhibition assay, CYP3A4; type: in vitro ADME; conditions: human hepatic microsomal fractions, up to 25 μM
T2 construct: incubated with human hepatic microsomal fractions and NADPH; from tissue; host or cells: human hepatic microsomal fractions
T2 sequence (P08684 2-503): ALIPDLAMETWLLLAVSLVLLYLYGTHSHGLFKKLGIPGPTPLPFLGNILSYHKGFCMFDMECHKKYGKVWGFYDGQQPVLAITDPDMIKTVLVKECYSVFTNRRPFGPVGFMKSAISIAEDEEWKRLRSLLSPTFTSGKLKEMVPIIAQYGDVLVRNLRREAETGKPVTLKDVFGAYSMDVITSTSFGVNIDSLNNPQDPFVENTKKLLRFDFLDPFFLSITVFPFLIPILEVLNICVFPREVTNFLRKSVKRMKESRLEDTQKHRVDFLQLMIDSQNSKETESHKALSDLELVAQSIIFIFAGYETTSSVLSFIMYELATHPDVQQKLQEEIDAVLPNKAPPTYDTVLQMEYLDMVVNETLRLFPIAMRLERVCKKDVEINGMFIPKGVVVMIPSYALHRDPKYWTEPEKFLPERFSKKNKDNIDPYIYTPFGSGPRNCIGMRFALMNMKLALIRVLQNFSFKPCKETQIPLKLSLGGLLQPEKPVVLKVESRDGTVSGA
Experimental: as §1

HCoV-229E = assay: Anti-human coronavirus 229E activity in MRC5 cells; type: cell-based; conditions: 72 h, viral cytopathic effect
CYP2C9 [1] = target: T3, CYP2C9 (Homo sapiens, UniProt P11712); assay: Metabolism by recombinant human cytochrome P450, CYP2C9; type: in vitro ADME; conditions: recombinant enzyme
T3 sequence (P11712 whole entry): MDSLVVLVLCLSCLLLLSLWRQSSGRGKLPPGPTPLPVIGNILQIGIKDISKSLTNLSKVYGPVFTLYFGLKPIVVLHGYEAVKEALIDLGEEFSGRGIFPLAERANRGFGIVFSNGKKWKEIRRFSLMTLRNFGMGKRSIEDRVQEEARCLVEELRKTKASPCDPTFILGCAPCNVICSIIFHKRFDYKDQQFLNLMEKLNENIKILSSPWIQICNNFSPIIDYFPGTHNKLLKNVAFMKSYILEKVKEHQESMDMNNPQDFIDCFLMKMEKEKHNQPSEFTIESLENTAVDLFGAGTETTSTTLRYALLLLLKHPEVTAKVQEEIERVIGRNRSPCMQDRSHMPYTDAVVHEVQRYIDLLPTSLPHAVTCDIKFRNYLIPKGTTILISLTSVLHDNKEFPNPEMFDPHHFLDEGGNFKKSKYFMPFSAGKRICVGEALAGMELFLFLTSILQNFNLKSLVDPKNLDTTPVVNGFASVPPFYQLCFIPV
Experimental: (§2) […] of compound was incubated with individual bacterially expressed recombinant human cytochromes P450 co-expressed with human NADPH cytochrome P450 reductase. […] Enzyme-selective positive control substrates were tested in parallel.

CYP2C8 = target: T4, CYP2C8 (Homo sapiens, UniProt P10632); assay: Metabolism by recombinant human cytochrome P450, CYP2C8; type: in vitro ADME; conditions: recombinant enzyme
T4 sequence (P10632 1-490): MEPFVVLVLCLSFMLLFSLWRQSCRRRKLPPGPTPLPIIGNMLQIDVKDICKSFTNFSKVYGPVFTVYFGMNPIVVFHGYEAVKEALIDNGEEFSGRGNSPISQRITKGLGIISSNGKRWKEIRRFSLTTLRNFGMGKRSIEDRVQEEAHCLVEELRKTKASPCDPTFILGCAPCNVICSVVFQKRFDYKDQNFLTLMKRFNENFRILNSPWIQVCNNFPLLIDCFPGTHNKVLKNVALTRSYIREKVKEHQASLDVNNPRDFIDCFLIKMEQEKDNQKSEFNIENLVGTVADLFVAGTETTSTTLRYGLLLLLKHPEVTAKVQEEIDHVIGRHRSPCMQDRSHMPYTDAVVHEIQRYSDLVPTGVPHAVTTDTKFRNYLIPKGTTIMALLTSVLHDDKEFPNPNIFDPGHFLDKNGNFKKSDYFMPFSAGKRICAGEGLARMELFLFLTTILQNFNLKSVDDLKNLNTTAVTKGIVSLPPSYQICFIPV
Experimental: as §2

Chemical stability, 24 h = type: physicochemical; conditions: 37 °C, remaining
CYP2C19 = CYP2C19 (Homo sapiens, UniProt P33261); assay: Metabolism by recombinant human cytochrome P450, CYP2C19; type: in vitro ADME; conditions: recombinant enzyme
CYP2C19, sequence (P33261 whole entry): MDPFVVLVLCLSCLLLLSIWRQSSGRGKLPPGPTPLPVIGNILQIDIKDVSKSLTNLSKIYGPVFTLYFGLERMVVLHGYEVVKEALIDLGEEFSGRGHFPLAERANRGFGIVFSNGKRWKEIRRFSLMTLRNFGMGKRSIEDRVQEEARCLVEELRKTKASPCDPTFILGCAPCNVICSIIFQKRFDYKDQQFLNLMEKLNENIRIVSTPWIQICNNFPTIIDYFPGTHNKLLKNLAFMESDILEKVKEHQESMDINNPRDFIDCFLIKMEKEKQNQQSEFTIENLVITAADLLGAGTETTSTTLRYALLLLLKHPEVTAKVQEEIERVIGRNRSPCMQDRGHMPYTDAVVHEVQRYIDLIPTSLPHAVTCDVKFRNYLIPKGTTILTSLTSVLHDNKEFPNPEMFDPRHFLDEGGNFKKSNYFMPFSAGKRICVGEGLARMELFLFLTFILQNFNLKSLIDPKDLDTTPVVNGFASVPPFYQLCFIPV
Experimental: as §2

CYP2D6 = CYP2D6 (Homo sapiens, UniProt P10635); assay: Metabolism by recombinant human cytochrome P450, CYP2D6; type: in vitro ADME; conditions: recombinant enzyme
CYP2D6, sequence (P10635 whole entry): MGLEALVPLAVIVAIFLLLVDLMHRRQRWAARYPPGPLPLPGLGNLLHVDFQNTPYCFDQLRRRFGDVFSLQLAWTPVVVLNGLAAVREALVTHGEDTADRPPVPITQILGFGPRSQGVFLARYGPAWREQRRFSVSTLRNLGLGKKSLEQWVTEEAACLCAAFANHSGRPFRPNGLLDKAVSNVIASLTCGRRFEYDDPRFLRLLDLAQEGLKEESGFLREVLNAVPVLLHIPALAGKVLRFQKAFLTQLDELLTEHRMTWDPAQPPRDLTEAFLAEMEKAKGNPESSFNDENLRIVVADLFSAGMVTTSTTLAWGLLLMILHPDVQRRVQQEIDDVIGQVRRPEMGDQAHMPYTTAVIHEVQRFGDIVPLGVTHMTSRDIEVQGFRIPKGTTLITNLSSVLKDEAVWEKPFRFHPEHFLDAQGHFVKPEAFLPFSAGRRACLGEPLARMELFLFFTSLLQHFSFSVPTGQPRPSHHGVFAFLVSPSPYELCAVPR
Experimental: as §2

[2] = Stability with hepatic microsomal fractions; type: in vitro ADME; conditions: human microsomes 0.5 mg protein/ml, NADPH, 3 μM
Experimental: The compounds (3 μM) were incubated in duplicate for up to 1 h in the presence of human hepatic microsomal fractions (0.5 mg protein ml^−1 final) at 37 °C. The addition of cofactor solution (NADPH generating system) initiated the reaction and aliquots were removed at 0, 5, 15, 30, 45 and 60 min after the start. The concentrations of the compounds in each sample were determined using specific LC-MS/MS assays. The half-life for the disappearance of each was determined by fitting the concentration-time data with a monophasic exponential model. A control compound (verapamil) was run in parallel to test the enzymatic integrity of the microsomal fractions.

CYP2C9 [3] = target: T3, CYP2C9; assay: Cytochrome P450 enzyme inhibition assay, CYP2C9; type: in vitro ADME; parameters: incubated with human hepatic microsomal fractions and NADPH; from tissue; host or cells: human hepatic microsomal fractions; conditions: human hepatic microsomal fractions, up to 25 μM
Experimental: as §1

HCV genotype 1b replicon = assay: microbe, parasite or virus in culture; type: cell-based, hepatitis C virus
[4] = Cell culture medium binding, equilibrium dialysis; type: in vitro ADME; conditions: 2 μM, 37 °C, 3 h dialysis
Experimental: The extent of binding to pooled human plasma and to cell culture medium containing 10% fetal bovine serum was determined by equilibrium dialysis against isotonic phosphate buffer. Equilibrium dialysis was conducted at 37 °C with initial concentrations of compounds of 2 μM in the non-buffer matrix. A 3 h dialysis time was used for equilibration. Following dialysis, plasma samples were drained into pre-weighed polypropylene tubes containing buffer and buffer samples were drained into pre-weighed tubes containing blank plasma. Post-dialysis plasma and buffer weights were measured and recorded for concentration and recovery calculations. After precipitation and centrifugation, LC-MS/MS assays were used for the analysis of each of the protein/phosphate buffer-mixed matrices. Relative binding to human plasma and cell culture medium was determined in a similar manner, except that the two matrices were dialysed against each other directly and the compound was spiked into both matrices. After equilibration, the plasma sample was diluted with blank cell culture medium and the cell culture medium diluted with blank plasma.

MT4 cells = assay: Cytotoxicity in uninfected MT4 cells; conditions: read-out: MT4 cells CC50

With `CSCCC(NC(=O)NCc1ccc(N)cc1)C(=O)N1CCCC1c1ccccc1SC.O=C(O)C(F)(F)F` (centres unmarked) [Compound 30] the IC50 (CYP1A2) was over 25000 nM, the “Inhibition of cytochrome P450 activity, IC50 CYP1A2” value (CYP1A2) was “Neither compound 29 nor compound 30 significantly inhibited” and the IC50 (CYP3A4) was 600 nM. The “Inhibition of cytochrome P450 activity, IC50 CYP3A4” value (CYP3A4) was “potent inhibitors”, the EC50 (HCoV-229E) was 7200 ± 1800 nM and the “Rate of metabolism by human cytochrome P450 CYP2C9” value (CYP2C9 [1]) was 0.49 pmol/pmol P450/min. The “Rate of metabolism by human cytochrome P450 CYP2C8” value (CYP2C8) was 0.56 pmol/pmol P450/min, the “24-hour stability HCl (pH 1.0)” value (Chemical stability, 24 h) was 92% and the “24-hour stability PBS (pH 7.4)” value (Chemical stability, 24 h) was 100%. The “24-hour stability PBS (pH 7.4)” value (Chemical stability, 24 h; listed as compound 30) was “not degraded”, the “Rate of metabolism by human cytochrome P450 CYP2C19” value (CYP2C19) was 6.21 pmol/pmol P450/min and the “Rate of metabolism by human cytochrome P450 CYP2C19” value (CYP2C19; listed as compound 30) was “metabolized at the highest rate”. For the same molecule, the “Rate of metabolism by human cytochrome P450 CYD2D6” value (CYP2D6) was 1.24 pmol/pmol P450/min, the “Hepatic microsomal stability, T1/2” value [2] was 35.5 min and the IC50 (CYP2C9 [3]) was over 25000 nM. For the same molecule, the “Inhibition of cytochrome P450 activity, IC50 CYP2C9” value (CYP2C9 [3]) was “Neither compound 29 nor compound 30 significantly inhibited”, the EC50 (HCV genotype 1b replicon; Huh7 cells, 3 days, HCV RNA, read-out: HCV genotype 1b replicon EC50) was 1400 ± 1200 nM and the EC50 (HCV genotype 1b replicon; wild-type genotype 1b replicon, comparison with mutated replicons (Table 3), read-out: EC50 HCV (WT) subgenomic replicon) was 2100 ± 90 nM. The “Cell culture medium (CCM) binding Unbound” value [4] was 23.2% and the CC50 (MT4 cells) was over 53000 nM.
